# Columns and labels:
# [1] = system: late watergrass; experiment: Test Example 2: herbicidal activity, application during weed generation under submerged conditions (Table 17, symbol A); format: in vivo, late watergrass (Echinochloa oryzicola); conditions: AAH 178 g/ha; application during weed generation, submerged conditions
# Method in brief: (§1)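 Wagner pot, alluvial soil, 4 cm flood; mixed sowing of all species; greenhouse 25° C.–30° C. Emulsifiable formulation, water-diluted to predetermined dose, applied to paddy water at 1–2 leaf stage. Effect rated at 3 wk using the earlier test's scoring criteria.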
# [2] = system: Japanese bulrush; experiment: Test Example 2: herbicidal activity, application during weed generation under submerged conditions (Table 17, symbol B); format: in vivo, Japanese bulrush (Schoenoplectus juncoides); conditions: AAH 178 g/ha; application during weed generation, submerged conditions
# Method in brief: as §1
# [3] = system: oval-leafed pondweed; experiment: Test Example 2: herbicidal activity, application during weed generation under submerged conditions (Table 17, symbol C); format: in vivo, oval-leafed pondweed (Monochoria vaginalis); conditions: AAH 178 g/ha; application during weed generation, submerged conditions
# Method in brief: as §1
# [4] = system: barnyard grass; experiment: Test Example 3: herbicidal effect by foliage application, Wagner pot (Table 18, symbol H); format: in vivo, barnyard grass (Echinochloa crus-galli); conditions: 178 g/ha
# Method in brief: (§2)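 Plants were sown in alluvial soil held under 0.1–0.5 cm standing water and grown 14 days in a greenhouse at 25–30 °C. An emulsifiable formulation, water-diluted to the set dose, was then sprayed onto the foliage, and effects were scored three weeks later using previously defined criteria.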
# [5] = system: Chinese sprangletop; experiment: Test Example 3: herbicidal effect by foliage application, Wagner pot (Table 18, symbol D); format: in vivo, chinese sprangletop (Leptochloa chinensis); conditions: 178 g/ha
# Method in brief: as §2
# [6] = system: rice flat sedge; experiment: Test Example 3: herbicidal effect by foliage application, Wagner pot (Table 18, symbol E); format: in vivo, rice flat sedge (Cyperus iria); conditions: 178 g/ha
# Method in brief: as §2
# [7] = system: southern crabgrass; experiment: Test Example 4: herbicidal effect by soil treatment (Table 19, symbol F); format: in vivo, southern crabgrass (Digitaria ciliaris); conditions: AAH 178 g/ha
# Method in brief: (§3)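 Herbicidal effect was rated 3 weeks after treatment, using the scoring criteria of an earlier test. The compound, formulated as an emulsion and diluted in water to a set herbicide amount, had been sprayed uniformly on soil over freshly sown seeds. Growth took place in a greenhouse at 25° C. to 30° C.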
# [8] = system: green foxtail; experiment: Test Example 4: herbicidal effect by soil treatment (Table 19, symbol G); format: in vivo, green foxtail (Setaria viridis); conditions: AAH 178 g/ha
# Method in brief: as §3
# [9] = system: barnyard grass; experiment: Test Example 4: herbicidal effect by soil treatment (Table 19, symbol H); format: in vivo, barnyard grass (Echinochloa crus-galli); conditions: AAH 178 g/ha
# Method in brief: as §3
# [10] = system: wild oat; experiment: Test Example 4: herbicidal effect by soil treatment (Table 19, symbol I); format: in vivo, wild oat (Avena fatua); conditions: AAH 178 g/ha
# Method in brief: as §3
# [11] = system: blackgrass; experiment: Test Example 4: herbicidal effect by soil treatment (Table 19, symbol J); format: in vivo, blackgrass (Alopecurus myosuroides); conditions: AAH 178 g/ha
# Method in brief: as §3
# [12] = system: Italian ryegrass; experiment: Test Example 4: herbicidal effect by soil treatment (Table 19, symbol K); format: in vivo, Italian ryegrass (Lolium multiflorum); conditions: AAH 178 g/ha
# Method in brief: as §3
# [13] = system: windgrass; experiment: Test Example 4: herbicidal effect by soil treatment (Table 19, symbol L); format: in vivo, windgrass (Apera spica-venti); conditions: AAH 178 g/ha
# Method in brief: as §3
# [14] = system: velvetleaf; experiment: Test Example 4: herbicidal effect by soil treatment (Table 19, symbol M); format: in vivo, velvetleaf (Abutilon theophrasti); conditions: AAH 178 g/ha
# Method in brief: as §3
# [15] = system: redroot pigweed; experiment: Test Example 4: herbicidal effect by soil treatment (Table 19, symbol N); format: in vivo, redroot pigweed (Amaranthus retroflexus); conditions: AAH 178 g/ha
# Method in brief: as §3
# [16] = system: lambsquarters; experiment: Test Example 4: herbicidal effect by soil treatment (Table 19, symbol O); format: in vivo, lambsquarters (Chenopodium album); conditions: AAH 178 g/ha
# Method in brief: as §3
# [17] = system: chickweed; experiment: Test Example 4: herbicidal effect by soil treatment (Table 19, symbol P); format: in vivo, common chickweed (Stellaria media); conditions: AAH 178 g/ha
# Method in brief: as §3
# [18] = system: false cleavers; experiment: Test Example 4: herbicidal effect by soil treatment (Table 19, symbol Q); format: in vivo, false cleavers (Galium spurium); conditions: AAH 178 g/ha
# Method in brief: as §3
# [19] = system: persian speedwell; experiment: Test Example 4: herbicidal effect by soil treatment (Table 19, symbol R); format: in vivo, Persian speedwell (Veronica persica); conditions: AAH 178 g/ha
# Method in brief: as §3
# [20] = system: southern crabgrass; experiment: Test Example 5: herbicidal effect by foliage application, plastic box (Table 20, symbol F); format: in vivo, southern crabgrass (Digitaria ciliaris); conditions: foliage application
# Method in brief: (§4)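 Foliar spray test: emulsion formulation diluted in water to a set application rate, sprayed onto 14-day-old plants raised in diluvial soil at 25° C to 30° C under glass. Both herbicidal effect and crop effect rated visually three weeks later.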
# [21] = system: green foxtail; experiment: Test Example 5: herbicidal effect by foliage application, plastic box (Table 20, symbol G); format: in vivo, green foxtail (Setaria viridis); conditions: foliage application
# Method in brief: as §4
# [22] = system: barnyard grass; experiment: Test Example 5: herbicidal effect by foliage application, plastic box (Table 20, symbol H); format: in vivo, barnyard grass (Echinochloa crus-galli); conditions: foliage application
# Method in brief: as §4
# [23] = system: wild oat; experiment: Test Example 5: herbicidal effect by foliage application, plastic box (Table 20, symbol I); format: in vivo, wild oat (Avena fatua); conditions: foliage application
# Method in brief: as §4
# [24] = system: blackgrass; experiment: Test Example 5: herbicidal effect by foliage application, plastic box (Table 20, symbol J); format: in vivo, blackgrass (Alopecurus myosuroides); conditions: foliage application
# Method in brief: as §4
# [25] = system: Italian ryegrass; experiment: Test Example 5: herbicidal effect by foliage application, plastic box (Table 20, symbol K); format: in vivo, Italian ryegrass (Lolium multiflorum); conditions: foliage application
# Method in brief: as §4
# [26] = system: windgrass; experiment: Test Example 5: herbicidal effect by foliage application, plastic box (Table 20, symbol L); format: in vivo, windgrass (Apera spica-venti); conditions: foliage application
# Method in brief: as §4
# [27] = system: velvetleaf; experiment: Test Example 5: herbicidal effect by foliage application, plastic box (Table 20, symbol M); format: in vivo, velvetleaf (Abutilon theophrasti); conditions: foliage application
# Method in brief: as §4
# [28] = system: lambsquarters; experiment: Test Example 5: herbicidal effect by foliage application, plastic box (Table 20, symbol O); format: in vivo, lambsquarters (Chenopodium album); conditions: foliage application
# Method in brief: as §4
# [29] = system: persian speedwell; experiment: Test Example 5: herbicidal effect by foliage application, plastic box (Table 20, symbol R); format: in vivo, Persian speedwell (Veronica persica); conditions: foliage application
# Method in brief: as §4
# [30] = system: redroot pigweed; experiment: Test Example 5: herbicidal effect by foliage application, plastic box (Table 20, symbol N); format: in vivo, redroot pigweed (Amaranthus retroflexus); conditions: foliage application, 320 g/ha, evaluated three weeks after application
# Method in brief: as §4
# [31] = system: chickweed; experiment: Test Example 5: herbicidal effect by foliage application, plastic box (Table 20, symbol P); format: in vivo, common chickweed (Stellaria media); conditions: foliage application, 320 g/ha, evaluated three weeks after application
# Method in brief: as §4
# [32] = system: false cleavers; experiment: Test Example 5: herbicidal effect by foliage application, plastic box (Table 20, symbol Q); format: in vivo, false cleavers (Galium spurium); conditions: foliage application, 320 g/ha, evaluated three weeks after application
# From the text: [Test Example 5] Herbicidal Effect Test by Foliage Application
# Sterilized diluvial soil was placed in a plastic box having a length of 21 cm, a width of 13 cm, and a depth of 7 cm. The seeds of each of southern crabgrass, green foxtail, barnyard grass, wild oat, blackgrass, Italian ryegrass, windgrass, velvetleaf, redroot pigweed, lambsquarters, chickweed, false cleavers, persian speedwell, corn, soybean, rice, wheat, beet, and rapeseed were sowed in a spot-like manner and covered with the soil having a thickness of about 1.5 cm. Thereafter, the plants were grown in a greenhouse at 25° C. to 30° C. After 14-day growth of the plants, the emulsion agent of the compound of the present invention prepared according to Formulation Example 2 was diluted with water so as to achieve a predetermined herbicide amount, and the diluted emulsion agent was uniformly applied to a foliage part with a small-sized spray. Three weeks after the herbicide application, the effect of the herbicide on each plant was evaluated according to the criteria of Test Example 1.
# [33] = 178 g/ha, 3 weeks after application
# [34] = 320 g/ha, evaluated three weeks after application
structure (smiles),measurement,setting,value
COCCOCOc1c(C)nn(C)c(=O)c1-c1c(-c2ccc(OC(F)F)cc2)sc2ccccc12 [1-202],"herbicidal effect rating, A: late watergrass",[1],2 (Herbicidal rate of 20% or more and less than 40%)
same,"herbicidal effect rating, B: Japanese bulrush",[2],3 (Herbicidal rate of 40% or more and less than 70%)
same,"herbicidal effect rating, C: oval-leafed pondweed",[3],0 (Herbicidal rate of 5% or less (almost no effect))
same,"herbicidal effect on H (barnyard grass), rating 0-5",[4],5 (Herbicidal rate of 90% or more (almost completely withered))
same,"herbicidal effect on D (Chinese sprangletop), rating 0-5",[5],3 (Herbicidal rate of 40% or more and less than 70%)
same,"herbicidal effect on E (rice flat sedge), rating 0-5",[6],5 (Herbicidal rate of 90% or more (almost completely withered))
same,"F: southern crabgrass, herbicidal effect rating",[7],0 (Herbicidal rate of 5% or less (almost no effect))
same,"G: green foxtail, herbicidal effect rating",[8],4 (Herbicidal rate of 70% or more and less than 90%)
same,"H: barnyard grass, herbicidal effect rating",[9],3 (Herbicidal rate of 40% or more and less than 70%)
same,"I: wild oat, herbicidal effect rating",[10],0 (Herbicidal rate of 5% or less (almost no effect))
same,"J: blackgrass, herbicidal effect rating",[11],0 (Herbicidal rate of 5% or less (almost no effect))
same,"K: Italian ryegrass, herbicidal effect rating",[12],4 (Herbicidal rate of 70% or more and less than 90%)
same,"L: windgrass, herbicidal effect rating",[13],0 (Herbicidal rate of 5% or less (almost no effect))
same,"M: velvetleaf, herbicidal effect rating",[14],2 (Herbicidal rate of 20% or more and less than 40%)
same,"N: redroot pigweed, herbicidal effect rating",[15],5 (Herbicidal rate of 90% or more (almost completely withered))
same,"O: lambsquarters, herbicidal effect rating",[16],4 (Herbicidal rate of 70% or more and less than 90%)
same,"P: chickweed, herbicidal effect rating",[17],3 (Herbicidal rate of 40% or more and less than 70%)
same,"Q: false cleavers, herbicidal effect rating",[18],3 (Herbicidal rate of 40% or more and less than 70%)
same,"R: persian speedwell, herbicidal effect rating",[19],4 (Herbicidal rate of 70% or more and less than 90%)
same,effect on southern crabgrass (F),[20]; [33],1 (Herbicidal rate of 5% or more and less than 20%)
same,effect on green foxtail (G),[21]; [33],5 (Herbicidal rate of 90% or more (almost completely withered))
same,effect on barnyard grass (H),[22]; [33],4 (Herbicidal rate of 70% or more and less than 90%)
same,effect on wild oat (I),[23]; [33],0 (Herbicidal rate of 5% or less (almost no effect))
same,effect on blackgrass (J),[24]; [33],3 (Herbicidal rate of 40% or more and less than 70%)
same,effect on Italian ryegrass (K),[25]; [33],5 (Herbicidal rate of 90% or more (almost completely withered))
same,effect on windgrass (L),[26]; [33],0 (Herbicidal rate of 5% or less (almost no effect))
same,effect on velvetleaf (M),[27]; [33],5 (Herbicidal rate of 90% or more (almost completely withered))
same,effect on lambsquarters (O),[28]; [33],5 (Herbicidal rate of 90% or more (almost completely withered))
same,effect on persian speedwell (R),[29]; [33],5 (Herbicidal rate of 90% or more (almost completely withered))
COc1cc(F)ccc1-c1sc2ccc(-c3ccc(OC(C)C)cc3)cc2c1-c1c(O)c(C)nn(C)c1=O [2-167],herbicidal effect on F: southern crabgrass (criteria 0-5),[20]; [34],0 (Herbicidal rate of 5% or less (almost no effect))
same,herbicidal effect on G: green foxtail (criteria 0-5),[21]; [34],0 (Herbicidal rate of 5% or less (almost no effect))
same,herbicidal effect on H: barnyard grass (criteria 0-5),[22]; [34],0 (Herbicidal rate of 5% or less (almost no effect))
same,herbicidal effect on I: wild oat (criteria 0-5),[23]; [34],0 (Herbicidal rate of 5% or less (almost no effect))
same,herbicidal effect on J: blackgrass (criteria 0-5),[24]; [34],0 (Herbicidal rate of 5% or less (almost no effect))
same,herbicidal effect on K: Italian ryegrass (criteria 0-5),[25]; [34],0 (Herbicidal rate of 5% or less (almost no effect))
same,herbicidal effect on L: windgrass (criteria 0-5),[26]; [34],0 (Herbicidal rate of 5% or less (almost no effect))
same,herbicidal effect on M: velvetleaf (criteria 0-5),[27]; [34],0 (Herbicidal rate of 5% or less (almost no effect))
same,herbicidal effect on N: redroot pigweed (criteria 0-5),[30],3 (Herbicidal rate of 40% or more and less than 70%)
same,herbicidal effect on O: lambsquarters (criteria 0-5),[28]; [34],0 (Herbicidal rate of 5% or less (almost no effect))
same,herbicidal effect on P: chickweed (criteria 0-5),[31],0 (Herbicidal rate of 5% or less (almost no effect))
same,herbicidal effect on Q: false cleavers (criteria 0-5),[32],0 (Herbicidal rate of 5% or less (almost no effect))
same,herbicidal effect on R: persian speedwell (criteria 0-5),[29]; [34],0 (Herbicidal rate of 5% or less (almost no effect))

# From patent US20230085307A1, “PYRIDAZINONE COMPOUND AND HERBICIDE” (NISSAN CHEMICAL CORPORATION, priority 2019, published 2023)
